US6608065B1, “Use of cGMP phosphodiesterase inhibitors in methods to treat female sexual dysfunction” (ICOS Corporation, priority 1995, dated 2003)

melting point [°C] | SMILES
319 to 321 | C[C@@H]1NC(=O)[C@H]2Cc3c([nH]c4ccccc34)[C@@H](c3ccc4c(c3)OCO4)N2C1=O [Example 3, (3S, 6R,12aR)-2,3,6,7,12,12a-Hexahydro-3-methyl-6-(3,4-methylenedioxyphenyl)-pyrazino[2′, 1′:6,1]pyrido[3,4-b]indole-1,4-dione]
307 to 309 | C[C@H]1C(=O)N2[C@H](c3ccc4c(c3)OCO4)c3[nH]c4ccccc4c3C[C@@H]2C(=O)N1C [Compound B, (3S, 6R, 12aR)-2,3,6,7,12,12a-hexahydro-2,3-dimethyl-6-(3,4-methylenedioxyphenyl)-pyrazino[2′, 1′:6,1]pyrido[3,4-b]indole-1,4-dione]
